Among the data in US20230255939A1, “Antimicrobial Agent for Non-Human Animal” (ISHIHARA SANGYO KAISHA, LTD, priority 2020, published 2023) are inhibition, MFC and MIC values, retold here.

Assay type in all cases: cell-based
In assay [1] the test system is Malassezia pachydermatis (IFM56528 strain). The experiment in a line: Antimicrobial activity test: colony formation inhibition after 1 minute contact (Test Examples 1 and 2). Conditions: M. pachydermatis IFM56528, final concentration 500 ppm, then culturing at 32° C. for 72 hours, read-out: Colony formation inhibition rate (%). The method, then: Test microbial strain: Malassezia pachydermatis (IFM56528 strain, strain obtained from Chiba University) The Malassezia microbe (Malassezia pachydermatis) cultured for 5 to 7 days in a Sabouraud medium (1% peptone, 4% dextrin, 1.5% agar) supplemented with 0.5% of Tween 40 (polyoxyethylene sorbitan monopalmitate: manufactured by Kanto Chemical Co., Inc.) was suspended in physiological saline and a suspension thereof was prepared in such a way as to have an absorbance of 0.25 at 550 nm. […] Colony formation inhibition rate (%) = [(number of colonies in non-agent treated plot - number of colonies in inventive plot)/number of colonies in non-agent treated plot] × 100 Test compound: Compound No. 1 (final concentration of 500 ppm) Test microbial strains: Malassezia pachydermatis (IFM56528 strain), M. furfur (IMF55951 strain), M. sympodialis (IMF48588 strain), M. globosa (IMF51946 strain), and M. restricta (IMF55992 strain) The colony formation inhibition rate for each of the test strains was determined by the same method as in Test Example 1.

For assay [2], the system named is M. restricta (IMF55992 strain). The experiment in a line: Antimicrobial activity against microbes of genus Malassezia: colony formation inhibition (Test Example 2). Conditions: 1 min, final concentration 500 ppm, 1 minute contact, read-out: Colony formation inhibition rate (%). The method, then: (§1) The Malassezia microbe (Malassezia pachydermatis) cultured for 5 to 7 days in a Sabouraud medium (1% peptone, 4% dextrin, 1.5% agar) supplemented with 0.5% of Tween 40 (polyoxyethylene sorbitan monopalmitate: manufactured by Kanto Chemical Co., Inc.) was suspended in physiological saline and a suspension thereof was prepared in such a way as to have an absorbance of 0.25 at 550 nm. Thereto, the test compound dissolved in DMSO was added in such a way as to provide a final concentration of 500 ppm, and after 1 minute, 10 µL of the suspension and 10 mL of physiological saline were placed in a syringe and stirred, and the syringe was connected to a 37 mm Quality Monitor (manufactured by Pall Corporation) followed by filtration and washing. The membrane filter was impregnated as it was with a Sabouraud medium supplemented with 1% of Tween80 (polyoxyethylene sorbitan monooleate: manufactured by Kanto Chemical Co., Ltd.) and subjected to culturing at 32° C. for 72 hours, the number of colonies formed there (number of colonies in the inventive plot) and the number of colonies in a solvent to which the test compound was not added (the number of colonies in the non-agent treated plot) were measured, and the colony formation inhibition rate (%) was determined according to the following expression. Colony formation inhibition rate (%) = [(number of colonies in non-agent treated plot - number of colonies in inventive plot)/number of colonies in non-agent treated plot] × 100 Test compound: Compound No. 1 (final concentration of 500 ppm) Test microbial strains: Malassezia pachydermatis (IFM56528 strain), M. furfur (IMF55951 strain), M. sympodialis (IMF48588 strain), M. globosa (IMF51946 strain), and M. restricta (IMF55992 strain) The colony formation inhibition rate for each of the test strains was determined by the same method as in Test Example 1.

Assay [3] concerns M. furfur (IMF55951 strain). The assay is described as above. Conditions: 1 min, final concentration 500 ppm, 1 minute contact, read-out: Colony formation inhibition rate (%). Here is the method:
as §1

Assay [4] concerns M. sympodialis (IMF48588 strain). The description is as above. The settings on record: 1 min, final concentration 500 ppm, 1 minute contact, read-out: Colony formation inhibition rate (%). Here is the method: as §1
Assay [5] concerns M. globosa (IMF51946 strain). The assay is described as above. Conditions: 1 min, final concentration 500 ppm, 1 minute contact, read-out: Colony formation inhibition rate (%). Here is the method: as §1
The subject of assay [6] is Microsporum canis (IFM63627). As to the kind of experiment: Antifungal activity test, minimum fungicidal concentration on spores (Test Example 8). Conditions: read-out: Minimum fungicidal concentration (MFC100). The method, then:
Test Example 8: Antifungal Activity Test
Test Compound: Compound No. 6
Test Microbial Strain: Microsporum Canis (IFM63627)
Microsporum canis was cultured at 32° C. for 168 hours in a ⅒ Sabouraud medium to form spores, then 10 mL of physiological saline (Otsuka Normal Saline; containing 9 g of sodium chloride in 1000 mL) was added directly onto the medium, and the surface was rubbed using a disposable loop (type 1 (1 µL)) to recover a spore suspension containing hyphae. The spore suspension containing hyphae was filtered through a cell strainer (φ40 µm). The spores were recovered from the filtrate by centrifugation (3500 rpm, 5 minutes) and washed twice with physiological saline, and then a spore suspension was prepared (1 × 10^7 spores/mL). 10 µL of the spore suspension was inoculated into 90 µL of physiological saline to which compound No. 6 dissolved in DMSO was added to have a predetermined concentration. […] The 10-µL spore suspension was spotted onto a Sabouraud medium and subjected to culturing at 32° C. for 72 hours, the presence or absence of colony growth was investigated, and the minimum fungicidal concentration (MFC100) was determined.

Assay [7] deals with Microsporum canis (NBRC7863). As to the kind of experiment: Antimicrobial activity test, minimum inhibitory concentration (Test Example 5). Conditions: Sabouraud media, 25° C. for 120 hours. The method, then:
Test Example 5: Antimicrobial Activity Test Test Compound: Compound No. 6 Test Microbial Strain: Microsporum Canis (NBRC7863) The strain was cultured in a Sabouraud medium and then suspended in PBS containing Tween80 (1% (V/V)), the resulting suspension was filtered through a cell strainer (φ40 µm), spores were recovered from the filtrate by centrifugation (3500 rpm, 5 minutes) and washed twice with physiological saline, and then a spore suspension was prepared (1 × 10^6 spores/mL). 50 µL of the spore suspension was inoculated into Sabouraud media to which compound No. 6 dissolved in DMSO was added to have various concentrations. After culturing at 25° C. for 120 hours, the presence or absence of microbial growth was investigated, and the minimum inhibitory concentration was determined.

≈ marks a conversion by molar mass, not a printed value. Where two headings read alike, the source gives them in different places.

Consider `Cc1ccc(-c2nc(C#N)[nH]c2Cl)cc1` [Compound No. 1, 5-Chloro-4-(4-methylphenyl)-1H-imidazole-2-carbonitrile], for which the inhibition at 500 ppm came to 100% in assay [1]; 100% in assay [2]; 100% in assay [3]; 100% in assay [4]; 97% in assay [5].

Consider `Cc1ccc(-c2nc(C#N)[nH]c2Cl)cc1Cl` [Compound No. 6, 5-chloro-4-(3-chloro-4-methylphenyl)-1H-imidazole-2-carbonitrile], for which the MFC in assay [6] (treatment time 24 Hours) stood at 50 µg/mL (≈ 198 µM); in assay [6] (treatment time 96 Hours), 10 µg/mL (≈ 39.7 µM). The molecule further gave a minimum inhibitory concentration (MIC) in assay [7] of 125 µg/mL (≈ 496 µM).

For orientation: inhibition means how much of the control response was suppressed. Broadly, the MIC is the least concentration at which growth counts as inhibited.
